In BindingDB's records for doi:10.1016/j.bmcl.2005.02.039 (National Institute of Pharmaceutical Education and Research …, 2005):

Experiment: Anti-oxidant activity in DPPH radicak scavenging assay; n=3-4

Row | IC50 | Structure (SMILES)
1 | 32.4 µM | Oc1ccc(/C=C/c2cc(/C=C/c3ccc(O)cc3)[nH]n2)cc1 [4-((E)-2-{3-[(E)-2-(4-hydroxyphenyl)vinyl]-1H-pyrazol-5-yl}vinyl)phenol]
2 | 15.5 µM | COc1cc(C=Cc2cc(C=Cc3ccc(O)cc3)n[nH]2)ccc1O [4-((E)-2-{5-[(E)-2-(4-Hydroxy-phenyl)-vinyl]-1H-pyrazol-3-yl}-vinyl)-2-methoxy-phenol]
3 | 19 µM | COc1cc(/C=C/c2cc(/C=C/c3ccc(O)cc3)on2)ccc1O [4-((E)-2-{5-[(E)-2-(4-Hydroxy-phenyl)-vinyl]-isoxazol-3-yl}-vinyl)-2-methoxy-phenol]
